Laboratory results: ChEMBL document CHEMBL3045868, “Synthesis and antibacterial activities of para-alkoxy phenyl--ketoaldehyde derivatives” (Med Chem Res, 2013)

Tests used:
Staphylococcus aureus [1] = assay: Antibacterial activity against Staphylococcus aureus clinical isolate 8 assessed as growth inhibition at pH 9 after 16 to 18 hr by NCCLS agar dilution method; assay type: functional
Staphylococcus aureus [2] = assay: Antibacterial activity against Staphylococcus aureus clinical isolate 8 assessed as growth inhibition at pH 7 after 16 to 18 hr by NCCLS agar dilution method; assay type: functional
Staphylococcus aureus [3] = assay: Antibacterial activity against Staphylococcus aureus clinical isolate 6 assessed as growth inhibition at pH 7 after 16 to 18 hr by NCCLS agar dilution method; assay type: functional
Staphylococcus aureus [4] = assay: Antibacterial activity against Staphylococcus aureus clinical isolate 4 assessed as growth inhibition at pH 7 after 16 to 18 hr by NCCLS agar dilution method; assay type: functional
Staphylococcus aureus [5] = assay: Bactericidal activity against Staphylococcus aureus clinical isolate 7 after 24 hr; assay type: functional; conditions: isolate 7, 24 h
Staphylococcus aureus [6] = assay: Bactericidal activity against Staphylococcus aureus clinical isolate 4 after 24 hr; assay type: functional; conditions: isolate 4, 24 h
Staphylococcus aureus [7] = assay: Bactericidal activity against Staphylococcus aureus clinical isolate 3 after 24 hr; assay type: functional; conditions: isolate 3, 24 h
Staphylococcus aureus [8] = assay: Antibacterial activity against Staphylococcus aureus clinical isolate 21 assessed as growth inhibition at pH 5 after 16 to 18 hr by NCCLS agar dilution method; assay type: functional
Staphylococcus aureus [9] = assay: Antibacterial activity against Staphylococcus aureus clinical isolate 24 assessed as growth inhibition at pH 7 after 16 to 18 hr by NCCLS agar dilution method; assay type: functional
Staphylococcus aureus [10] = assay: Antibacterial activity against Staphylococcus aureus clinical isolate 19 assessed as growth inhibition at pH 7 after 16 to 18 hr by NCCLS agar dilution method; assay type: functional
Staphylococcus aureus [11] = assay: Antibacterial activity against Staphylococcus aureus clinical isolate 17 assessed as growth inhibition at pH 7 after 16 to 18 hr by NCCLS agar dilution method; assay type: functional
Staphylococcus aureus [12] = assay: Antibacterial activity against Staphylococcus aureus clinical isolate 15 assessed as growth inhibition at pH 7 after 16 to 18 hr by NCCLS agar dilution method; assay type: functional
Staphylococcus aureus [13] = assay: Antibacterial activity against Staphylococcus aureus clinical isolate 14 assessed as growth inhibition at pH 7 after 16 to 18 hr by NCCLS agar dilution method; assay type: functional
Staphylococcus aureus [14] = assay: Antibacterial activity against Staphylococcus aureus clinical isolate 13 assessed as growth inhibition at pH 7 after 16 to 18 hr by NCCLS agar dilution method; assay type: functional
Staphylococcus aureus [15] = assay: Antibacterial activity against Staphylococcus aureus clinical isolate 11 assessed as growth inhibition at pH 7 after 16 to 18 hr by NCCLS agar dilution method; assay type: functional
Staphylococcus aureus [16] = assay: Antibacterial activity against Staphylococcus aureus clinical isolate 10 assessed as growth inhibition at pH 7 after 16 to 18 hr by NCCLS agar dilution method; assay type: functional
Staphylococcus aureus [17] = assay: Antibacterial activity against Staphylococcus aureus clinical isolate 9 assessed as growth inhibition at pH 5 after 16 to 18 hr by NCCLS agar dilution method; assay type: functional
Staphylococcus aureus [18] = assay: Antibacterial activity against Staphylococcus aureus clinical isolate 8 assessed as growth inhibition at pH 5 after 16 to 18 hr by NCCLS agar dilution method; assay type: functional
Staphylococcus aureus [19] = assay: Antibacterial activity against Staphylococcus aureus clinical isolate 23 assessed as growth inhibition at pH 9 after 16 to 18 hr by NCCLS agar dilution method; assay type: functional
Staphylococcus aureus [20] = assay: Antibacterial activity against Staphylococcus aureus clinical isolate 20 assessed as growth inhibition at pH 9 after 16 to 18 hr by NCCLS agar dilution method; assay type: functional
Staphylococcus aureus [21] = assay: Antibacterial activity against Staphylococcus aureus clinical isolate 19 assessed as growth inhibition at pH 9 after 16 to 18 hr by NCCLS agar dilution method; assay type: functional
Staphylococcus aureus [22] = assay: Antibacterial activity against Staphylococcus aureus clinical isolate 17 assessed as growth inhibition at pH 9 after 16 to 18 hr by NCCLS agar dilution method; assay type: functional
Staphylococcus aureus [23] = assay: Antibacterial activity against Staphylococcus aureus clinical isolate 15 assessed as growth inhibition at pH 9 after 16 to 18 hr by NCCLS agar dilution method; assay type: functional
Staphylococcus aureus [24] = assay: Antibacterial activity against Staphylococcus aureus clinical isolate 4 assessed as growth inhibition after 16 to 18 hr by NCCLS agar dilution method; assay type: functional
Staphylococcus aureus [25] = assay: Antibacterial activity against Staphylococcus aureus clinical isolate 3 assessed as growth inhibition after 16 to 18 hr by NCCLS agar dilution method; assay type: functional
Helicobacter pylori [26] = assay: Antibacterial activity against Helicobacter pylori 06-7 assessed as growth inhibition after 16 to 18 hr NCCLS agar dilution method; assay type: functional
Staphylococcus aureus [27] = assay: Antibacterial activity against Staphylococcus aureus clinical isolate 7 assessed as growth inhibition at pH 9 after 16 to 18 hr by NCCLS agar dilution method; assay type: functional
Staphylococcus aureus [28] = assay: Antibacterial activity against Staphylococcus aureus clinical isolate 5 assessed as growth inhibition at pH 9 after 16 to 18 hr by NCCLS agar dilution method; assay type: functional
Helicobacter pylori [29] = assay: Antibacterial activity against Helicobacter pylori 05-9 assessed as growth inhibition after 16 to 18 hr NCCLS agar dilution method; assay type: functional
Helicobacter pylori [30] = assay: Antibacterial activity against Helicobacter pylori 05-4 assessed as growth inhibition after 16 to 18 hr NCCLS agar dilution method; assay type: functional, 05-Apr
Pseudomonas aeruginosa = assay: Antibacterial activity against Pseudomonas aeruginosa ATCC 27853 assessed as growth inhibition after 16 to 18 hr NCCLS agar dilution method; assay type: functional
Helicobacter pylori [31] = assay: Antibacterial activity against Helicobacter pylori 06-6 assessed as growth inhibition after 16 to 18 hr NCCLS agar dilution method; assay type: functional
Helicobacter pylori [32] = assay: Antibacterial activity against Helicobacter pylori 06-2 assessed as growth inhibition after 16 to 18 hr NCCLS agar dilution method; assay type: functional
Helicobacter pylori [33] = assay: Antibacterial activity against Helicobacter pylori 05-3 assessed as growth inhibition after 16 to 18 hr NCCLS agar dilution method; assay type: functional
Staphylococcus aureus [34] = assay: Antibacterial activity against Staphylococcus aureus clinical isolate 20 assessed as growth inhibition at pH 5 after 16 to 18 hr by NCCLS agar dilution method; assay type: functional
Staphylococcus aureus [35] = assay: Antibacterial activity against Staphylococcus aureus clinical isolate 19 assessed as growth inhibition at pH 5 after 16 to 18 hr by NCCLS agar dilution method; assay type: functional
Staphylococcus aureus [36] = assay: Antibacterial activity against Staphylococcus aureus clinical isolate 18 assessed as growth inhibition at pH 5 after 16 to 18 hr by NCCLS agar dilution method; assay type: functional
Staphylococcus aureus [37] = assay: Antibacterial activity against Staphylococcus aureus clinical isolate 13 assessed as growth inhibition at pH 5 after 16 to 18 hr by NCCLS agar dilution method; assay type: functional
Staphylococcus aureus [38] = assay: Bactericidal activity against Staphylococcus aureus clinical isolate 10 after 24 hr; assay type: functional; conditions: isolate 10, 24 h
Staphylococcus aureus [39] = assay: Antibacterial activity against Staphylococcus aureus clinical isolate 3 assessed as growth inhibition at pH 5 after 16 to 18 hr by NCCLS agar dilution method; assay type: functional
Staphylococcus aureus [40] = assay: Antibacterial activity against Staphylococcus aureus clinical isolate 1 assessed as growth inhibition at pH 5 after 16 to 18 hr by NCCLS agar dilution method; assay type: functional
Staphylococcus aureus [41] = assay: Antibacterial activity against methicillin-resistant Staphylococcus aureus isolate 4 assessed as growth inhibition after 16 to 18 hr by NCCLS agar dilution method; assay type: functional
Staphylococcus aureus [42] = assay: Antibacterial activity against methicillin-resistant Staphylococcus aureus isolate 2 assessed as growth inhibition after 16 to 18 hr by NCCLS agar dilution method; assay type: functional

CO/N=C/CC(=O)c1ccc(OC)cc1
128 µg/mL: MBC (Staphylococcus aureus [5]) | MBC (Staphylococcus aureus [6])
8 µg/mL: MIC (Staphylococcus aureus [1]) | MIC (Staphylococcus aureus [9]) | MIC (Staphylococcus aureus [12]) | MIC (Staphylococcus aureus [14]) | MIC (Staphylococcus aureus [19]) | MIC (Staphylococcus aureus [20]) | MIC (Staphylococcus aureus [23]) | MIC (Staphylococcus aureus [25]) | MIC (Staphylococcus aureus [27]) | MIC (Staphylococcus aureus [28]) | MIC (Staphylococcus aureus [41]) | MIC (Staphylococcus aureus [42])
32 µg/mL: MIC (Staphylococcus aureus [3]) | MIC (Staphylococcus aureus [8]) | MIC (Staphylococcus aureus [16]) | MIC (Staphylococcus aureus [17]) | MIC (Staphylococcus aureus [18]) | MIC (Helicobacter pylori [26]) | MIC (Helicobacter pylori [32]) | MIC (Staphylococcus aureus [36]) | MIC (Staphylococcus aureus [37]) | MIC (Staphylococcus aureus [39])
> 64 µg/mL: MIC (Pseudomonas aeruginosa)
64 µg/mL: MBC (Staphylococcus aureus [7]) | MIC (Helicobacter pylori [29]) | MIC (Staphylococcus aureus [34]) | MIC (Staphylococcus aureus [40])
16 µg/mL: MIC (Staphylococcus aureus [2]) | MIC (Staphylococcus aureus [4]) | MIC (Staphylococcus aureus [10]) | MIC (Staphylococcus aureus [11]) | MIC (Staphylococcus aureus [13]) | MIC (Staphylococcus aureus [15]) | MIC (Staphylococcus aureus [21]) | MIC (Staphylococcus aureus [22]) | MIC (Staphylococcus aureus [24]) | MIC (Helicobacter pylori [30]) | MIC (Helicobacter pylori [31]) | MIC (Helicobacter pylori [33]) | MIC (Staphylococcus aureus [35])
> 128 µg/mL: MBC (Staphylococcus aureus [38])
